In this test the target is human MGL from HeLa cells (Homo sapiens (Human), UniProt Q99685). Briefly: MGL in vitro activity assay ([glycerol-1,3-3H]-oleoyl glycerol cleavage, activated carbon filter). As to conditions: 300 nM [Glycerol-1,3-3H]-oleoyl glycerol, endogenously expressed MGL from HeLa cells, one hour incubation; read-out: MGL IC50. Type of test: biochemical. As to the method: The assay consists of combining endogenously expressed MGL from HeLa cells with test compounds, adding[glycerol-1,3-^3H]-oleoyl glycerol, incubating for one hour, and then measuring the amount of cleaved[1,3-^3H]-glycerol that passes through an activated carbon filter. The amount of cleaved, tritiated glycerol passing through the carbon filter is proportional to the activity of the MGL enzyme in a particular well/test condition.
Standard conditions for this assay combine 300 nM [Glycerol-1,3-^3H]-oleoyl glycerol with human MGL from HeLa cells and test compounds for one hour, after which the reaction is filtered through activated carbon and tritium is measured in the flow through. […] MGL is the predominant hydrolase in HeLa cells/cell homogenates.

Chain of human MGL from HeLa cells (Q99685 whole entry): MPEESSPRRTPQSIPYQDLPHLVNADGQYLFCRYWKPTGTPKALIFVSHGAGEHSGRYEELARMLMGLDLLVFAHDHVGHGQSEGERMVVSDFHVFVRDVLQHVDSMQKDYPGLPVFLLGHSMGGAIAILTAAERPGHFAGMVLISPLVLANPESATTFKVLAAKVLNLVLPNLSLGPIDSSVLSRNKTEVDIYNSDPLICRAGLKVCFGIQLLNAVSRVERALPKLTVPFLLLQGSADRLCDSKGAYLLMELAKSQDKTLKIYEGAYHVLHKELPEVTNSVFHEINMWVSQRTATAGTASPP

For the compound `C[C@]12CN(C(=O)[C@H]3C[C@]4(COC(=O)N4)C3)C[C@H]1[C@@H]2c1ccc(OC(F)(F)F)cc1` (racemic) [Example 107, (rac)-(2s,4*5)-2-((1*R,5*S,6*R)-1-Methyl-6-(4-(trifluoromethoxy)phenyl)-3-azabicyclo[3.1.0]hexane-3-carbonyl)-7-oxa-5-azaspiro[3.4]octan-6-one], the concentration for half-maximal inhibition (IC50) came out at 73 nM.

Take `C[C@]12CN(C(=O)[C@H]3C[C@]4(COC(=O)N4)C3)C[C@H]1[C@@H]2c1ccc(C2CC2)cc1` (racemic) [Example 108, (rac)-(2s,4*5)-2-((1*R,5*S,6*R)-6-(4-Cyclopropylphenyl)-1-methyl-3-azabicyclo[3.1.0]hexane-3-carbonyl)-7-oxa-5-azaspiro[3.4]octan-6-one]: the IC50 amounted to 38 nM.

As to `Cc1ccc([C@H]2[C@@H]3CN(C(=O)[C@H]4C[C@]5(COC(=O)N5)C4)C[C@@]32C)cc1C(F)(F)F` (racemic) [Example 112, (rac)-(2s,4*S)-2-((1*R,5*S,6*R)-1-Methyl-6-(4-methyl-3-(trifluoromethyl)phenyl)-3-azabicyclo[3.1.0]hexane-3-carbonyl)-7-oxa-5-azaspiro[3.4]octan-6-one], the IC50 is 6 nM.

Turning to `Cc1ccc([C@H]2[C@@H]3CN(C(=O)[C@H]4C[C@]5(COC(=O)N5)C4)C[C@@]32C)cc1OC(F)(F)F` (racemic) [Example 114, (rac)-(2s,4*S)-2-((1*R,5*S,6*R)-1-Methyl-6-(4-methyl-3-(trifluoromethoxy)phenyl)-3-azabicyclo[3.1.0]hexane-3-carbonyl)-7-oxa-5-azaspiro[3.4]octan-6-one], the IC50 amounted to 4.1 nM.

Consider `O=C1N[C@]2(CO1)C[C@H](C(=O)N1CCC3(c4ccccc4)C(Cl)C3C1)C2` (mixture of isomers) [Example 123, (rac)-(2s,4s)-2-(7-Chloro-6-phenyl-3-azabicyclo[4.1.0]heptane-3-carbonyl)-7-oxa-5-azaspiro[3.4]octan-6-one], for which the IC50 amounted to 200 nM.

In the case of `O=C1N[C@]2(CO1)C[C@H](C(=O)N1CCC3(c4ccccc4)C(C1)C3(Cl)Cl)C2` (racemic) [Example 124, (rac)-(2s,4s)-2-(7,7-Dichloro-6-phenyl-3-azabicyclo[4.1.0]heptane-3-carbonyl)-7-oxa-5-azaspiro[3.4]octan-6-one], the IC50 is 32 nM.

As for `O=C1CCC2(CC(C(=O)N3CC[C@@]4(c5cccc(OC(F)(F)F)c5)C[C@H]4C3)C2)N1` (relative stereo) [Example 119, (2r,4*5)-2-((1*R,6*5)-6-(3-(Trifluoromethoxy)phenyl)-3-azabicyclo[4.1.0]heptane-3-carbonyl)-5-azaspiro[3.4]octan-6-one], the IC50 was found to be 5.2 nM.

On to `O=C1CCC2(CC(C(=O)N3CC[C@]4(c5cccc(OC(F)(F)F)c5)C[C@@H]4C3)C2)N1` (relative stereo) [Example 120, (2r,4*R)-2-((1*S,6*R)-6-(3-(Trifluoromethoxy)phenyl)-3-azabicyclo[4.1.0]heptane-3-carbonyl)-5-azaspiro[3.4]octan-6-one], for which the IC50 was 23 nM.

Consider `O=C1CCC2(CC(C(=O)N3CC[C@@]4(c5ccc(OC(F)(F)F)cc5)C[C@H]4C3)C2)N1` (relative stereo) [Example 121, (2r,4*5)-2-((1*R,6*S)-6-(4-(Trifluoromethoxy)phenyl)-3-azabicyclo[4.1.0]heptane-3-carbonyl)-5-azaspiro[3.4]octan-6-one], for which the IC50 was 42 nM.

As for `O=C1CCC2(CC(C(=O)N3CC[C@]4(c5ccc(OC(F)(F)F)cc5)C[C@@H]4C3)C2)N1` (relative stereo) [Example 122, (2r,4*R)-2-((1*S,6*R)-6-(4-(Trifluoromethoxy)phenyl)-3-azabicyclo[4.1.0]heptane-3-carbonyl)-5-azaspiro[3.4]octan-6-one], the IC50 was 12 nM.

Consider `CC(C)c1cccc([C@@]23C[C@@H]2CN(C(=O)[C@H]2C[C@]4(COC(=O)N4)C2)C3)c1` (stereo in doubt) [Example 7, (2s,4*5)-2-((1*R,5*5)-1-(3-Isopropylphenyl)-3-azabicyclo[3.1.0]hexane-3-carbonyl)-7-oxa-5-azaspiro[3.4]octan-6-one], for which the IC50 is 5 nM.

In the case of `CC(C)c1cccc([C@]23C[C@H]2CN(C(=O)[C@H]2C[C@]4(COC(=O)N4)C2)C3)c1` (stereo in doubt) [Example 8, (2s,4*R)-2-((1*S,5*R)-1-(3-Isopropylphenyl)-3-azabicyclo[3.1.0]hexane-3-carbonyl)-7-oxa-5-azaspiro[3.4]octan-6-one], the IC50 came to 11 nM.

Take `CC(C)c1ccc([C@@]23C[C@@H]2CN(C(=O)[C@H]2C[C@]4(COC(=O)N4)C2)C3)cc1` (stereo in doubt) [Example 10, (2s,4*5)-2-((1*R,5*S)-1-(4-Isopropylphenyl)-3-azabicyclo[3.1.0]hexane-3-carbonyl)-7-oxa-5-azaspiro[3.4]octan-6-one]: the IC50 was found to be 2.3 nM.

In the case of `CC(C)c1ccc([C@]23C[C@H]2CN(C(=O)[C@H]2C[C@]4(COC(=O)N4)C2)C3)cc1` (stereo in doubt) [Example 11, (2s,4*R)-2-((1*S,5*R)-1-(4-Isopropylphenyl)-3-azabicyclo[3.1.0]hexane-3-carbonyl)-7-oxa-5-azaspiro[3.4]octan-6-one], the half-maximal inhibitory concentration (IC50) was found to be 2.3 nM.

Regarding `CC(C)(C)c1ccc([C@@]23C[C@@H]2CN(C(=O)[C@H]2C[C@]4(CCC(=O)N4)C2)C3)cc1` (stereo in doubt) [Example 14, (2r,4*S)-2-((1*R,5*5)-1-(4-(tert-Butyl)phenyl)-3-azabicyclo[3.1.0]hexane-3-carbonyl)-5-azaspiro[3.4]octan-6-one], the IC50 came out at 23 nM.

For the compound `CC(C)(C)c1ccc([C@]23C[C@H]2CN(C(=O)[C@H]2C[C@]4(CCC(=O)N4)C2)C3)cc1` (stereo in doubt) [Example 15, (2r,4*R)-2-((1*S,5*R)-1-(4-(tert-Butyl)phenyl)-3-azabicyclo[3.1.0]hexane-3-carbonyl)-5-azaspiro[3.4]octan-6-one], the IC50 amounted to 12 nM.

As for `Cc1cccc([C@]23CCN(C(=O)[C@H]4C[C@]5(COC(=O)N5)C4)C[C@H]2C3)c1` (stereo in doubt) [Example 44, (2s,4*R)-2-((1*S,6*R)-6-(m-Tolyl)-3-azabicyclo[4.1.0]heptane-3-carbonyl)-7-oxa-5-azaspiro[3.4]octan-6-one], the IC50 was 2.8 nM.

For `Cc1cccc([C@@]23CCN(C(=O)[C@H]4C[C@]5(COC(=O)N5)C4)C[C@@H]2C3)c1` (stereo in doubt) [Example 45, (2s,4*5)-2-((1*R,6*S)-6-(m-Tolyl)-3-azabicyclo[4.1.0]heptane-3-carbonyl)-7-oxa-5-azaspiro[3.4]octan-6-one], the IC50 came out at 32 nM.

As for `Cc1ccc([C@]23CCN(C(=O)[C@H]4C[C@]5(COC(=O)N5)C4)C[C@H]2C3)cc1F` (stereo in doubt) [Example 47, (2s,4*R)-2-((1*S,6*R)-6-(3-Fluoro-4-methylphenyl)-3-azabicyclo[4.1.0]heptane-3-carbonyl)-7-oxa-5-azaspiro[3.4]octan-6-one], the IC50 was 21 nM.

Consider `Cc1ccc([C@@]23CCN(C(=O)[C@H]4C[C@]5(COC(=O)N5)C4)C[C@@H]2C3)cc1F` (stereo in doubt) [Example 48, (2s,4*5)-2-((1*R,6*5)-6-(3-Fluoro-4-methylphenyl)-3-azabicyclo[4.1.0]heptane-3-carbonyl)-7-oxa-5-azaspiro[3.4]octan-6-one], for which the IC50 was found to be 1.3 nM.

`O=C1N[C@]2(CO1)C[C@H](C(=O)N1CC[C@]3(c4cccc(OC(F)(F)F)c4)C[C@@H]3C1)C2` (stereo in doubt) [Example 50, (2s,4*R)-2-((1*S,6*R)-6-(3-(Trifluoromethoxy)phenyl)-3-azabicyclo[4.1.0]heptane-3-carbonyl)-7-oxa-5-azaspiro[3.4]octan-6-one]: the IC50 is 4.2 nM.

Turning to `O=C1N[C@]2(CO1)C[C@H](C(=O)N1CC[C@@]3(c4cccc(OC(F)(F)F)c4)C[C@H]3C1)C2` (stereo in doubt) [Example 51, (2s,4*S)-2-((1*R,6*S)-6-(3-(Trifluoromethoxy)phenyl)-3-azabicyclo[4.1.0]heptane-3-carbonyl)-7-oxa-5-azaspiro[3.4]octan-6-one], the IC50 stood at 0.52 nM.

For the compound `CC(C)(C)c1cccc([C@H]2[C@@H]3CN(C(=O)[C@H]4C[C@]5(COC(=O)N5)C4)C[C@@]32C)c1` (stereo in doubt) [Example 93, (rac)-(2s,4*5)-2-((1*R,5*S,6*R)-6-(3-(tert-Butyl)phenyl)-1-methyl-3-azabicyclo[3.1.0]hexane-3-carbonyl)-7-oxa-5-azaspiro[3.4]octan-6-one], the IC50 was 0.76 nM.

For `CC1(c2ccc([C@@]34C[C@@H]3CN(C(=O)[C@H]3C[C@]5(CCC(=O)N5)C3)C4)cc2)CC1` (stereo in doubt) [Example 95, (2r,4*S)-2-((1*R,5*5)-1-(4-(1-Methylcyclopropyl)phenyl)-3-azabicyclo[3.1.0]hexane-3-carbonyl)-5-azaspiro[3.4]octan-6-one], the IC50 is 7.5 nM.

On to `CC1(c2ccc([C@]34C[C@H]3CN(C(=O)[C@H]3C[C@]5(CCC(=O)N5)C3)C4)cc2)CC1` (stereo in doubt) [Example 96, (2r,4*R)-2-((1*S,5*R)-1-(4-(1-Methylcyclopropyl)phenyl)-3-azabicyclo[3.1.0]hexane-3-carbonyl)-5-azaspiro[3.4]octan-6-one], for which the 50% inhibitory concentration (IC50) was 8.5 nM.

In the case of `CC(C)(C)c1cccc([C@H]2[C@@H]3CN(C(=O)[C@H]4C[C@]5(COC(=O)N5)C4)C[C@@]32C)c1` (stereo in doubt) [Example 99, (2s,4*5)-2-((1*R,5*S,6*R)-6-(3-(tert-Butyl)phenyl)-1-methyl-3-azabicyclo[3.1.0]hexane-3-carbonyl)-7-oxa-5-azaspiro[3.4]octan-6-one], the IC50 is 0.64 nM.

By IC50 is commonly meant the point on the concentration scale where inhibition reaches its midpoint.

Source of the values: patent publication US11708359B2, “Monoacylglycerol lipase modulators” (Janssen Pharmaceutica NV, priority 2020, dated 2023).
